The text below walks through data of patent publication US9284350B2, “IAP BIR domain binding compounds” (Pharmascience Inc., priority 2010, dated 2016).

One assay deals with T1, c-IAP1 (Homo sapiens, UniProt Q13490).
T1 construct: GST (N); made in house; host or cells: E. coli DH5α
Briefly: Fluorescence polarization-based competition assay, c-IAP1. In kind it is binding. The note with it: FP assay, ki derived from IC50. In short, it runs like this: (§1)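 Competition of FITC-labelled probe (2 nM) binding to the BIR domain, protein set at 80% of maximal FP signal; 10-point compound dilutions in 50 mM HEPES pH 7.5, γ-globulin, 2 mM DTT, 1% DMSO, 1 h at room temperature in the dark. IC50 from sigmoidal fit; Ki derived from IC50.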

Assay [1] deals with Colorectal carcinoma HCT116 cells. Briefly: Cell death assay (MTT) in combination with HGS ETR1. In kind it is cell-based. The following applies: with HGS ETR1 30 ng/ml, 72 hours, read-out: HCT116+ mapatubimap EC50. Summed up:
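HCT116 cells (2000/well, McCoy's 5a, 10% FBS) were treated 24 h after plating with compound plus the agonistic TRAIL receptor antibody mapatumumab (ETR1, 30 ng/ml) for 72 hours. Viability was read by MTT. EC50 was the concentration giving 50% survival relative to untreated controls.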

For the next assay, the target named is T2, XIAP (Homo sapiens, UniProt P98170).
T2 construct: fused on or other part: GST tag at the N-terminus (pGEX4T vectors)
The assay can be described thus: Fluorescence polarization-based competition assay, XIAP. The class given is binding. The note with it: FP assay, ki derived from IC50. In short, it runs like this: as §1
(In general: In fluorescence polarisation assays a small probe gives low polarisation when free and higher when bound to something large.)

The next assay deals with T3, cIAP2 (Homo sapiens, UniProt Q13489).
T3 construct: GST (N); made in house; host or cells: E. coli DH5α
The assay can be described thus: Fluorescence polarization-based competition assay, cIAP2. The class given is binding. The following applies: FP assay, ki derived from IC50. The protocol:
Binding of compounds of Formula 1 to target BIR domains was measured using a fluorescence-polarization (FP) assay. Fluorescence-polarization was evaluated using a GENios microplate reader (TECAN) Pro instrument with the excitation filter set at 485 nm and the emission filter set at 535 nm. The final amount of protein used in the assay corresponds to the amount of protein necessary to obtain 80% of the maximum FP value in a P1 or P2 fluorescent (FITC) probe saturation experiment. The compounds potency (IC50) and selectivity, was assessed in the presence of the amount of target protein established, fluorescent probe, and a 10 point serial dilution in assay buffer (50 mM Hepes, pH 7.5, 250 mcg/mL γ-globulin, 2 mM DTT, 1% DMSO) of the selected compounds.
Assays were carried out in duplicate using untreated black 96-well plates (Corning #3915) and a total volume of 100 microliters, containing 25 microliters of fluorescent probe at a final concentration of 2 nM in assay buffer, 25 microliters of diluted compound, 25 microliters of BIR protein into assay buffer and 25 microliters of assay buffer. Buffer only (blank) or probe only in buffer (G-factor) were used as controls for calibration. The plate was incubated at room temperature in the dark for one hour and FP values in millipolarization units (mP) were recorded using Genios Pro FP reader.
The measured FP values (mP) were then plotted against compound concentration, and IC50 values were calculated based on a sigmoidal dose-response (variable-slope) curve fit using GraphPad Prism version 4.02 for Windows, GraphPad Software, San Diego Calif. USA and/or CambridgeSoft BioAssay Enterprise Version 10.1. The IC50 value is the concentration of test compound at which 50% of the tracer was displaced. ki values were derived from the calculated IC50 values as described above and according to the equation described in Nikolovska-Coleska, Z. (2004) Anal Biochem 332, 261-273. The results are presented in Table 2, wherein A=less than 25 nM; B=less than 250 nM; C=less than 1000 nM; and D=greater than 1000 nM.

A value given as a limit tells only on which side of the number the result lay.

T2 sequence (P98170 246-497 limits assumed): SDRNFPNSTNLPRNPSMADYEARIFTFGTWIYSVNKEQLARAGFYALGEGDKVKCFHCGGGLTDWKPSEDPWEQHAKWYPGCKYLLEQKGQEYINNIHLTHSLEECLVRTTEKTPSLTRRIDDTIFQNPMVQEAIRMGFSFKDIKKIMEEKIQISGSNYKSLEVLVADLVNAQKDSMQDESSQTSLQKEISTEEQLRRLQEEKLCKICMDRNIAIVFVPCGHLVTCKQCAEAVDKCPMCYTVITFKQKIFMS
T3 sequence (Q13489 236-349): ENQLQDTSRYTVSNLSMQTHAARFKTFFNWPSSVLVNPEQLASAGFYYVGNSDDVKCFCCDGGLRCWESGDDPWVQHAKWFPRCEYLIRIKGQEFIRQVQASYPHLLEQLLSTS
T1 sequence (Q13490 251-363): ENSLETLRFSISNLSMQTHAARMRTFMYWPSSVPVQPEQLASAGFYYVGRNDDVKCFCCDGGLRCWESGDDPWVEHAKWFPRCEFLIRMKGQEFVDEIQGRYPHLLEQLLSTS

In general, Ki refers to a dissociation constant, usually derived from enzyme kinetics or from competition with a known ligand. A low value points to tighter binding. Usually EC50 stands for the concentration at which the effect is half-maximal. For `CN[C@@H](C)C(=O)N[C@H](C(=O)N1C[C@@H](NS(=O)(=O)c2ccccc2)C[C@H]1CN(CCc1ccc(F)cc1)C(=O)c1cn2cccnc2n1)C(C)(C)C` [Compound 59], the Ki at c-IAP1 was under 25 nM; at XIAP it was under 250 nM; on cIAP2, under 25 nM. The EC50 in assay [1] is under 1000 nM.

Take `CN[C@@H](C)C(=O)N[C@H](C(=O)N1C[C@@H](NC(=O)Cc2ccccc2)C[C@H]1CN(CCc1ccc(F)cc1)C(=O)c1cn2cccnc2n1)C(C)(C)C` [Compound 56]: the results for the Ki at c-IAP1, on XIAP and at cIAP2 were under 25 nM, under 1000 nM and under 25 nM, respectively. In addition, the EC50 in assay [1] is under 1000 nM.

Turning to `CN[C@@H](C)C(=O)N[C@H](C(=O)N1CCC[C@H]1CN(CCc1ccc(F)cc1)C(=O)c1ncc(-c2ccccc2)[nH]1)C(C)(C)C` [Compound 109], the Ki was under 25 nM on c-IAP1, under 250 nM on XIAP and under 25 nM at cIAP2. In addition, the EC50 in assay [1] was under 50 nM.

On to `CN[C@@H](C)C(=O)N[C@H](C(=O)N1C[C@@H](Oc2ccc(OC(F)(F)F)cc2)C[C@H]1CN(CCc1ccc(F)cc1)C(=O)c1cn(C)cn1)C(C)(C)C` [Compound 97], for which the Ki at c-IAP1 was under 25 nM; on XIAP it was under 250 nM; on cIAP2, under 25 nM. Also, the EC50 in assay [1] is under 50 nM.

For the molecule `CN[C@@H](C)C(=O)N[C@H](C(=O)N1C[C@@H](Oc2ccccc2)C[C@H]1CN(CCc1ccc(F)cc1)C(=O)c1cn2cccnc2n1)C(C)(C)C` [Compound 124], the Ki was under 25 nM on c-IAP1, under 250 nM at XIAP and under 25 nM at cIAP2. Also, the EC50 in assay [1] was under 50 nM.

On to `CN[C@@H](C)C(=O)N[C@H](C(=O)N1CCC[C@H]1CN(CCc1ccccc1)C(=O)c1cn2cccnc2n1)C(C)(C)C` [Compound 6], for which the values for the inhibition constant (Ki) at c-IAP1, at XIAP and on cIAP2 were under 25 nM, under 250 nM and under 25 nM, respectively. Further, the EC50 in assay [1] is under 250 nM.

In the case of `CN[C@@H](C)C(=O)N[C@H](C(=O)N1CCC[C@H]1CN(CCc1ccc(F)cc1)C(=O)c1cn2cccnc2n1)C1CCCCC1` [Compound 20], the figures for the Ki on c-IAP1, at XIAP and on cIAP2 were under 25 nM, under 250 nM and under 25 nM, respectively. Also, the EC50 in assay [1] was under 50 nM.

Regarding `CN[C@@H](C)C(=O)N[C@H](C(=O)N1CCC[C@H]1CN(CCc1ccc(F)cc1)C(=O)c1cn2ccccc2n1)[C@@H](C)OC` [Compound 58], the Ki on c-IAP1 was under 25 nM; on XIAP, under 250 nM; at cIAP2 it was under 25 nM. In addition, the EC50 in assay [1] was under 50 nM.

Consider `CN[C@@H](C)C(=O)N[C@H](C(=O)N1CCC[C@H]1CN(CCc1ccc(F)cc1)C(=O)c1cc(C)on1)C(C)(C)C` [Compound 98], for which the Ki on c-IAP1 is under 25 nM; on XIAP, under 250 nM; on cIAP2, under 25 nM. The EC50 in assay [1] was under 250 nM.

In the case of `CN[C@@H](C)C(=O)N[C@H](C(=O)N1CCC[C@H]1CN(CCc1ccc(F)cc1)C(=O)c1cn(-c2ccc(F)cc2)cn1)C(C)(C)C` [Compound 66], the Ki on c-IAP1 is under 25 nM; at XIAP, under 250 nM; at cIAP2, under 25 nM. Also, the EC50 in assay [1] is under 50 nM.

Turning to `CN[C@@H](C)C(=O)N[C@H](C(=O)N1C[C@@H](NC(C)=O)C[C@H]1CN(CCc1ccc(F)cc1)C(=O)c1cn2ccccc2n1)C(C)(C)C` [Compound 70], the results for the Ki on c-IAP1, on XIAP and at cIAP2 were under 25 nM, under 1000 nM and under 250 nM, respectively. For the same molecule, the EC50 in assay [1] is under 1000 nM.

In the case of `CN[C@@H](C)C(=O)N[C@H](C(=O)N1CCC[C@H]1CN(CCc1ccccc1)C(=O)c1cn2cc(F)ccc2n1)C(C)(C)C` [Compound 32], the Ki is under 25 nM at c-IAP1, under 250 nM on XIAP and under 25 nM on cIAP2. Moreover, the EC50 in assay [1] is under 250 nM.

As to `CN[C@@H](C)C(=O)N[C@H](C(=O)N1CCC[C@H]1CN(CCc1ccc(F)cc1)C(=O)c1cn(C)cn1)C1CCCCC1` [Compound 120], the Ki at c-IAP1 was under 25 nM; on XIAP, under 250 nM; at cIAP2, under 25 nM. Further, the EC50 in assay [1] was under 50 nM.

As to `CN[C@@H](C)C(=O)N[C@H](C(=O)N1CCC[C@H]1CN(CCc1ccc(F)cc1)C(=O)c1cn2cccnc2n1)[C@@H](C)OC` [Compound 36], the Ki at c-IAP1 was under 25 nM; on XIAP, under 250 nM; on cIAP2, under 25 nM. Also, the EC50 in assay [1] was under 250 nM.

For the molecule `CN[C@@H](C)C(=O)N[C@H](C(=O)N1CCC[C@H]1CN(CCc1cccc(F)c1)C(=O)c1cn2cccnc2n1)C(C)(C)C` [Compound 12], the Ki at c-IAP1 was under 25 nM; at XIAP, under 1000 nM; on cIAP2 it was under 250 nM. Further, in assay [1], the EC50 is under 250 nM.

`CN[C@@H](C)C(=O)N[C@H](C(=O)N1CCC[C@H]1CN(CCc1ccc(F)cc1)C(=O)c1cncn1C)C(C)(C)C` [Compound 92]: the Ki on c-IAP1 was under 25 nM; at XIAP, under 1000 nM; on cIAP2, under 250 nM. In addition, the EC50 in assay [1] is under 250 nM.

As to `CCO[C@H](C)[C@H](NC(=O)[C@H](C)NC)C(=O)N1CCC[C@H]1CN(CCc1ccc(F)cc1)C(=O)c1cn2c(n1)CCC2` [Compound 81], the Ki at c-IAP1 is under 25 nM; on XIAP, under 250 nM; at cIAP2, under 25 nM. Besides, the EC50 in assay [1] was under 50 nM.

For `CN[C@@H](C)C(=O)N[C@H](C(=O)N1C[C@@H](Oc2ccc(F)cc2)C[C@H]1CN(CCc1ccc(F)cc1)C(=O)c1cn(C)cn1)[C@@H](C)OC` [Compound 99], the Ki is under 25 nM at c-IAP1, under 250 nM on XIAP and under 25 nM on cIAP2. Moreover, the EC50 in assay [1] is under 50 nM.

For the molecule `CN[C@@H](C)C(=O)N[C@H](C(=O)N1C[C@@H](Oc2ccc(F)cc2)C[C@H]1CN(CCc1ccc(F)cc1)C(=O)c1cn2ccccc2n1)C(C)(C)C` [Compound 84], the Ki on c-IAP1, at XIAP and on cIAP2 was under 25 nM throughout. In assay [1], the EC50 was under 50 nM.

As to `CN[C@@H](C)C(=O)N[C@H](C(=O)N1CCC[C@H]1CN(CCc1ccc(F)cc1)C(=O)c1cn(-c2ccc(F)cc2)cn1)[C@@H](C)OC` [Compound 72], the Ki on c-IAP1 was under 25 nM; at XIAP, under 250 nM; at cIAP2 it was under 25 nM. Further, in assay [1], the EC50 was under 50 nM.

For the molecule `CN[C@@H](C)C(=O)N[C@H](C(=O)N1C[C@@H](NC(=O)c2ccccc2)C[C@H]1CN(CCc1ccc(F)cc1)C(=O)c1cn2ccccc2n1)C(C)(C)C` [Compound 69], the results for the Ki at c-IAP1, at XIAP and at cIAP2 were under 25 nM, under 250 nM and under 25 nM, respectively. The EC50 in assay [1] is under 250 nM.

Regarding `CN[C@@H](C)C(=O)N[C@H](C(=O)N1C[C@@H](Oc2ccc(F)cc2)C[C@H]1CN(CCc1ccc(F)cc1)C(=O)c1cn2cccnc2n1)C(C)(C)C` [Compound 65], the Ki on c-IAP1, at XIAP and on cIAP2 was under 25 nM in each case. In assay [1], the EC50 is under 50 nM.

On to `CN[C@@H](C)C(=O)N[C@H](C(=O)N1CCC[C@H]1CN(CCc1ccc(F)cc1)C(=O)c1ccn(-c2ccccc2)c1)C(C)(C)C` [Compound 122], for which the inhibition constant (Ki) is under 25 nM at c-IAP1, under 250 nM at XIAP and under 25 nM at cIAP2. Moreover, the EC50 in assay [1] was under 250 nM.

As to `CN[C@@H](C)C(=O)N[C@H](C(=O)N1CCC[C@H]1CN(CCc1ccc(F)cc1)C(=O)c1cn2c(n1)CCC2)[C@@H](C)OC` [Compound 75], the Ki is under 25 nM at c-IAP1, under 250 nM on XIAP and under 25 nM at cIAP2. Also, the EC50 in assay [1] was under 50 nM.

For the molecule `C[C@H](N)C(=O)N[C@H](C(=O)N1CCC[C@H]1CN(CCc1ccc(F)cc1)C(=O)c1cn2cccnc2n1)C(C)(C)C` [Compound 37], the inhibition constant (Ki) on c-IAP1 is under 25 nM; at XIAP it was under 250 nM; at cIAP2 it was under 25 nM. Also, in assay [1], the EC50 is over 1000 nM.

For `CN[C@@H](C)C(=O)N[C@H](C(=O)N1CCC[C@H]1CN(CCc1ccc(F)cc1)C(=O)c1nnc(-c2ccccc2)o1)C(C)(C)C` [Compound 117], the results for the Ki at c-IAP1, at XIAP and at cIAP2 were under 25 nM, under 1000 nM and under 25 nM, respectively. In addition, the EC50 in assay [1] was under 250 nM.
